Laboratory results reported in patent US20090048210A1, “AGENT FOR THERAPY OR TREATMENT OF WOUND” (priority 2004, published 2009).

Columns and labels:
[1] = test system: normal human neonatal prepuce epidermis keratinized cells (NHEK(F)); assay: Human epidermis keratinized cell proliferation assay (WST-8 cell counting); format: cell-based; conditions: for overall effect on cell proliferation ability as compared with the control: summary of the 24 and 48 hour experiments
Experimental: Human epidermis keratinized cells were cultured in the presence of chitin and chitosan as well as their derivatives, and change in proliferation ability of the cell was measured.
As the human epidermis cell, normal human neonatal prepuce epidermis keratinized cells (NHEK(F)) (Kurabo Biomedical, Osaka) were used.
A medium used for measuring NHEK(F) proliferation effect was obtained by adding 1 ml of a PSA solution (Kurabo Biomedical, Osaka) containing penicillin, streptomycin and amphoterin B, and 10% bovine fetus serum (Gibco, USA) to 500 ml of a basic medium for human epidermis keratinized cell HuMedia-KB2 (Kurabo Biomedical, Osaka).
Cells were cultured under 37° C., 5% CO2 and wet environments using a medium for proliferation and a flask for culturing (Lot No. 055522) (Nalge Nunc International, Denmark), and passed to quaternary culture and used in an experiment.
The medium was aspirated when proliferation of cells reach sub-confluent (60 to 80% of the flask bottom area), then, inside of the vessel was washed with HEPES, and 2 ml of trypsin was added to cause release of cells from the vessel bottom. The released cells were recovered by HEPES and added into the neutralization solution to terminate the reaction of trypsin, and then, precipitated by centrifugal separation (1100 rpm, 5 minutes), and the supernatant was discarded. The recovered cells were re-floated on a medium for proliferation, the live cell number was counted by a trypan blue discharge test, and then, transplanted into another flask for culturing so that the live cell concentration to the flask bottom area was […].
For measurement, cells were centrifugally separated, then, re-floated on a medium for measurement and adjusted at 30000 cells/ml to give a cell suspension which was then used.
Into each well of a 96-well multi-plate (Sumitomo Bakelite Co. Ltd., Tokyo), the cell suspension prepared in (1) was disseminated each in an amount of 100 μl at a concentration of 3000 cells/well. For stabilizing disseminated cells, previous culturing was carried out for 12 hours under 37° C., 5% CO2 and wet environments.
Next, into each well of the multi-plate, the chitin-based samples or chitosan-based samples controlled at respective concentrations were added each in an amount of 10 μl. The final concentrations of respective samples in this operation were 100, 10, 1 and 0.1 μg/ml, respectively. True culturing was carried out for 24 hours or 48 hours under 37° C., 5% CO2 and wet environments.
For counting the number of cells proliferated in the culturing, a reagent for measuring cell number (cell counting kit) WST-8 was added in an amount of 10 μl to each well of the multi-plate, and allowed to stand still under 37° C., 5% CO2 and wet environments for 1 to 4 hours to cause coloration. After coloration, the absorbance was measured using EASY READER EAR340AT (Medi-Con Corporation, Osaka). Numerical treatment and statistics of the measured data were carried out using a table calculation software (Microsoft Excel xp (R)).
The cell number and absorbance show a proportional correlation (FIG. 2, Table 2), and this graph gave a calibration curve:
A cell number in dissemination of 3000 was subtracted from the cell number obtained from this calibration curve to give a proliferated cell number (cells/well).

skin deficient wound = assay: Skin deficient wound mouse model, skin regeneration; format: in vivo
Experimental: Fresh skin deficient wound was made using mice and a skin regeneration promoting effect of GlcNAc was studied. As a control, chitin in the form of gel (Chitosan Kowa K.K.) and physiological saline were used. (i) Eight 8-weeks female mice: BALB/c having a body weight of 20 to 25 g were used. In the experiment, one week-conditioning period was set. (ii) An N-acetyl-D-glucosamine (GlcNAc) powder (Seikagaku Kogyo K.K., Tokyo) was diluted in physiological saline so that its concentration was 10 mg/ml, and then, sterilized by filtration through a 0.22 μm millipore filter to give stock solution the stock solution was then diluted with sterile physiological saline to 10 μg/ml and used. (iii) chitin in the form of gel (Chitosan Kowa, Tokyo). Hereinafter, referred to as “chitin gel”. (iv) GlcNAc was blended in chitin gel so that its concentration was 10 μg/g and the blend was used. Hereinafter, the blend is referred to as “chitin gel+GlcNAc”. (i) Production of skin deficient model: Pentobarbital (trade name: Nembutal injection) was diluted 10-fold with physiological saline, and then, administered intraperitoneally to a mouse at 0.005 ml/g. After a sufficient anesthetic effect was confirmed, hair at the back of the mouse was shaved by a hair clipper, and the skin was disinfected with alcohol, and then, a round skin deficient region having a diameter of 5 mm was made using a 5 mm derma punch (FIG. 9). These eight mice were classified into “chitin gel group”, “chitin gel+GlcNAc group”, “GlcNAc group” and “physiological saline group” each containing two mice, and each group was applied once a day. (ii) “chitin gel group” and “chitin gel+GlcNAc group” were directly applied to the skin deficient region for 7 days each at 0.1 g/head, and “GlcNAc group” and “physiological saline group” were each at 1 ml/head. (iii) On 8th and later days, the crust formed was removed directly before application of each group, and application was carried out for further 8 days in the same manner as described above. The size of the skin damage repair region was measured on 8th and 16th days using calipers. Staining method: The skin deficiency repair region was collected, and fixed with a 10% neutral buffer formalin aqueous solution (formaldehyde solution). The repair region was excised to give a longitudinal section, and then, embedded in paraffin according to an ordinary method and sliced into 5 μm by a microtome. It was stained by hematoxylin-eosin staining.

[2] = 24 hours after addition, 0.1 μg/ml
[3] = 24 hours after addition, 1 μg/ml
[4] = 24 hours after addition, 10 μg/ml
[5] = 24 hours after addition, 100 μg/ml
[6] = 48 hours after addition, 0.1 μg/ml
[7] = 48 hours after addition, 1 μg/ml
[8] = 48 hours after addition, 10 μg/ml
[9] = 48 hours after addition, 100 μg/ml
[10] = 5 mm skin deficient region, applied once a day for 16 days
[11] = hematoxylin-eosin staining of the repair region

| SMILES | average cell proliferation number [1, 2] [cell/well] | average cell proliferation number [1, 3] [cell/well] | average cell proliferation number [1, 4] [cell/well] | average cell proliferation number [1, 5] [cell/well] | proliferation effect as compared with the control (p<0.05) ([1]; 24 hours, 1 μg/ml) | proliferation effect as compared with the control (p<0.05) ([1]; 24 hours, 10 μg/ml) | proliferation effect as compared with the control (p<0.05) ([1]; 24 hours, 100 μg/ml) | average cell proliferation number [1, 6] [cell/well] | average cell proliferation number [1, 7] [cell/well] | average cell proliferation number [1, 8] [cell/well] | average cell proliferation number [1, 9] [cell/well] | proliferation effect as compared with the control (p<0.05) ([1]; 48 hours, 1 μg/ml) | overall effect on cell proliferation ability as compared with the control [1] | visual observation: epidermis / skin formation (skin deficient wound; [10]) | visual observation: excess granulation (skin deficient wound; [10]) | overall skin regenerating effect in a mouse (skin deficient wound; compared with physiological saline and chitin gel) | histological observation: hypodermis (skin deficient wound; [11]) | histological observation: regeneration of skin / epidermis (skin deficient wound; [11]) | proliferation effect as compared with the control (p<0.05) ([1]; 48 hours, 10 μg/ml) | proliferation effect as compared with the control (p<0.05) ([1]; 48 hours, 100 μg/ml) |
| --- | --- | --- | --- | --- | --- | --- | --- | --- | --- | --- | --- | --- | --- | --- | --- | --- | --- | --- | --- | --- |
| N[C@H]1C(O)O[C@H](CO)[C@@H](O)[C@@H]1O (stereo partly drawn) [GlcN, D-Glucosamine, reference compound] | 587 ± 134 | 766 ± 114 | 634 ± 65 | 689 ± 34 | significant proliferation stimulating effects | significant proliferation stimulating effects | significant proliferation stimulating effects | 1616 ± 244 | 2108 ± 344 | 1839 ± 160 | 1758 ± 424 | significant proliferation stimulating effect | significant effect of stimulating cell proliferation ability |  |  |  |  |  |  |  |
| CC(=O)N[C@H]1C(O)O[C@H](CO)[C@@H](O)[C@@H]1O (stereo partly drawn) [GlcNAc, N-Acetyl-D-Glucosamine] | 601 ± 39 | 774 ± 158 | 636 ± 51 | 628 ± 73 | significant proliferation stimulating effects | significant proliferation stimulating effects | significant proliferation stimulating effects | 1312 ± 169 | 2372 ± 415 | 2155 ± 175 | 2128 ± 165 | significant proliferation stimulating effects | significant effect of stimulating cell proliferation ability | complete cutization was recognized | excess granulation did not occur | more excellent than physiological saline and chitin gel | leaves a slight granulation tissue at the center portion | skin regeneration is completed | significant proliferation stimulating effects | significant proliferation stimulating effects |
